Results on 12 molecules are retold here after ChEMBL document CHEMBL1201862, “PubChem BioAssay data set” (2004).

Test systems include SF-268; UO-31; Hs-578T; COLO 205; A498; SK-MEL-5; HCT-15; PC-3; CAKI-1; NCI-H23; KM12; NCI-H226; MDA-N; HCT-116; MCF7; UACC-257; ACHN; RPMI-8226; NCI-H460; HOP-92.
Common to all, as to assay: NCI tumour cell line growth inhibition, 48 h

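Grown in 96-well plates, cells were treated for 48 hours with each compound at five concentrations. Insufficient inhibition: endpoint recorded as highest concentration tested. GI50 = concentration required for 50% inhibition of growth.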 The source made the active and inactive calls. Cut-off read from the data, not from the text of the source: active = GI50 up to about 1.1 µM and inactive = higher.

Consider `CCOC(=O)C(=[N+]=[N-])C(=O)CSC#N`, for which the GI50 with SF-268 was > 100 µM (inactive); with UO-31, 31.2 µM (inactive); in the assay on Hs-578T it was > 100 µM (inactive); in the assay with COLO 205, > 100 µM (inactive); in the assay on A498, > 100 µM (inactive); with SK-MEL-5 it was 35.5 µM (inactive). Further, the GI50 in the assay with HCT-15 was 51.4 µM; with PC-3, > 100 µM (inactive); in the assay with CAKI-1, 32.7 µM (inactive); with NCI-H23, 84.7 µM (inactive); in the assay on KM12 it was > 100 µM (inactive); in the assay with NCI-H226 it was 40.6 µM (inactive). Besides, the GI50 was 36 µM (inactive) with MDA-N; 33 µM (inactive) with HCT-116; 38.4 µM (inactive) with MCF7; 71.4 µM (inactive) with UACC-257; 22.3 µM (inactive) in the assay on ACHN.
`COC(=O)c1c(O)ccc2c1c1c(n2Cc2cc(OC)cc(OC)c2)C(=O)c2ccccc2C1`: the GI50 with SF-268 was 31.1 µM (inactive); in the assay on UO-31, 63.4 µM (inactive); in the assay on Hs-578T it was 87.3 µM (inactive); with COLO 205, 13.2 µM (inactive); with A498 it was 92.3 µM (inactive); in the assay with SK-MEL-5, 34.3 µM (inactive). The GI50 was 32.1 µM in the assay with HCT-15; 7.82 µM (inactive) in the assay on RPMI-8226; 16.9 µM (inactive) in the assay with PC-3; 21.1 µM (inactive) in the assay with CAKI-1; 58.1 µM (inactive) in the assay with NCI-H23; 43.3 µM (inactive) in the assay with KM12. For the same molecule, the GI50 in the assay on NCI-H226 is 93.3 µM (inactive); in the assay with MDA-N, 10.8 µM (inactive); in the assay with HCT-116, 8.28 µM (inactive); with NCI-H460 it was 31 µM (inactive); with MCF7, 23.7 µM (inactive); in the assay on UACC-257, 67 µM (inactive).
As to `SCCSCCCSCCS`, the GI50 with SF-268 is > 100 µM (inactive); in the assay with UO-31, 15.7 µM (inactive); with COLO 205, 86.9 µM (inactive); in the assay with SK-MEL-5, > 100 µM (inactive); in the assay with HCT-15 it was more than 100 µM; in the assay with PC-3, 20 µM (inactive). Also, the GI50 is > 100 µM (inactive) in the assay on NCI-H23; > 100 µM (inactive) with KM12; > 100 µM (inactive) in the assay on MDA-N; > 100 µM (inactive) in the assay on HCT-116; 31.1 µM (inactive) in the assay with NCI-H460; 70.8 µM (inactive) in the assay on MCF7. Besides, in the assay with UACC-257, the GI50 was 59.3 µM (inactive).
With `CCN(CC)C(=S)SNCCc1ccc(S(N)(=O)=O)cc1`, the GI50 in the assay with SF-268 was 15.6 µM (inactive); in the assay with HOP-92 it was 17.5 µM (inactive); in the assay with UO-31 it was 13.1 µM (inactive); in the assay with Hs-578T, 19.5 µM (inactive); with COLO 205, 29.2 µM (inactive); in the assay on A498, 30.7 µM (inactive). Moreover, the GI50 in the assay on SK-MEL-5 was 11.2 µM (inactive); in the assay with HCT-15, 16.8 µM; with RPMI-8226, 11.5 µM (inactive); in the assay on PC-3, 13.9 µM (inactive); in the assay on CAKI-1 it was 14 µM (inactive); with NCI-H23, 18.8 µM (inactive). The GI50 with KM12 is 16.6 µM (inactive); in the assay on NCI-H226, 42.7 µM (inactive); with MDA-N, 18.3 µM (inactive); with HCT-116, 13.3 µM (inactive); in the assay on NCI-H460 it was 22.4 µM (inactive); in the assay with UACC-257 it was 15.5 µM (inactive). The GI50 with ACHN is 17.9 µM (inactive).
For `COC(=O)C(Cc1ccc(OC)cc1O)NC(=O)OC(C)(C)C` (centres undefined), the GI50 is > 100 µM (inactive) with SF-268; > 100 µM (inactive) in the assay with UO-31; > 100 µM (inactive) in the assay on Hs-578T; > 100 µM (inactive) in the assay with COLO 205; 61.7 µM (inactive) in the assay with SK-MEL-5; more than 100 µM with HCT-15. In addition, the GI50 is > 100 µM (inactive) in the assay on PC-3; > 100 µM (inactive) in the assay on CAKI-1; 86.3 µM (inactive) in the assay with NCI-H23; > 100 µM (inactive) in the assay with KM12; > 100 µM (inactive) in the assay with NCI-H226; > 100 µM (inactive) in the assay on MDA-N. Besides, the GI50 in the assay on HCT-116 was > 100 µM (inactive); with NCI-H460 it was > 100 µM (inactive); with MCF7, > 100 µM (inactive); in the assay with UACC-257, 22.1 µM (inactive); in the assay with ACHN it was > 100 µM (inactive).
For `O=S1(=O)OCCCOS(=O)(=O)C1Br`, the GI50 is > 100 µM (inactive) in the assay with SF-268; > 100 µM (inactive) with UO-31; > 100 µM (inactive) in the assay with COLO 205; > 100 µM (inactive) in the assay with SK-MEL-5; more than 100 µM in the assay on HCT-15; > 100 µM (inactive) in the assay with RPMI-8226. For the same molecule, the GI50 in the assay with PC-3, in the assay on CAKI-1, with NCI-H23, in the assay on KM12, in the assay with NCI-H226 and with MDA-N was > 100 µM (inactive) each time. The GI50 in the assay on HCT-116, in the assay with MCF7, with UACC-257 and in the assay with ACHN was > 100 µM (inactive) in each case.
As for `O=C1NN=C(O)C2C3c4ccccc4C(c4ccccc43)C12` (centres undefined), the GI50 with SF-268, with UO-31, in the assay on Hs-578T, in the assay on COLO 205, in the assay with A498 and in the assay with SK-MEL-5 was > 100 µM (inactive) in each case. Besides, the GI50 is more than 100 µM with HCT-15; > 100 µM (inactive) with RPMI-8226; > 100 µM (inactive) with PC-3; > 100 µM (inactive) with CAKI-1; > 100 µM (inactive) with NCI-H23; > 100 µM (inactive) in the assay on KM12. The GI50 in the assay on NCI-H226, with MDA-N, with HCT-116, in the assay with NCI-H460, in the assay with MCF7 and with UACC-257 was > 100 µM (inactive) each time. Also, the GI50 in the assay on ACHN is > 100 µM (inactive).
Take `O=C(/C=C(\Nc1ccccc1O)c1ccccc1)C(=O)NC12CC3CC(CC(C3)C1)C2`: the GI50 in the assay with SF-268 is > 10 µM (inactive); in the assay with UO-31, > 10 µM (inactive); in the assay on Hs-578T it was > 10 µM (inactive); in the assay with COLO 205, > 10 µM (inactive); with A498, > 10 µM (inactive); in the assay with SK-MEL-5 it was 7.03 µM (inactive). Also, the GI50 in the assay on HCT-15 is more than 10 µM; in the assay with RPMI-8226 it was 4.99 µM (inactive); in the assay on PC-3, 5.65 µM (inactive); in the assay on CAKI-1 it was > 10 µM (inactive); in the assay with NCI-H23, > 10 µM (inactive); in the assay with KM12 it was 6.95 µM (inactive). Moreover, the GI50 in the assay with NCI-H226, in the assay on MDA-N, in the assay on NCI-H460, in the assay on MCF7, with UACC-257 and with ACHN was > 10 µM (inactive) each time.
For `Cc1n[nH]c(=O)n1/N=C/c1cccc(Cl)c1`, the GI50 was 63.7 µM (inactive) in the assay on SF-268; > 100 µM (inactive) in the assay on UO-31; 17.7 µM (inactive) in the assay on Hs-578T; > 100 µM (inactive) in the assay with COLO 205; 40.8 µM (inactive) in the assay on A498; more than 100 µM in the assay with HCT-15. In addition, the GI50 in the assay on RPMI-8226, with PC-3, with CAKI-1, in the assay on NCI-H23, with KM12 and with NCI-H226 was > 100 µM (inactive) throughout. Further, the GI50 with MDA-N, in the assay on HCT-116, in the assay with NCI-H460, in the assay with MCF7, with UACC-257 and in the assay with ACHN was > 100 µM (inactive) each time.
For `CCOC(=O)C1(C/C=C\CBr)CCCCCCCCCCC1=O` (centres undefined), the GI50 in the assay on SF-268 was 11 µM (inactive); in the assay with UO-31, 2.9 µM (inactive); with Hs-578T, 20 µM (inactive); in the assay on COLO 205 it was 17.5 µM (inactive); in the assay with A498, 13.9 µM (inactive); in the assay with SK-MEL-5, 12.8 µM (inactive). For the same molecule, the GI50 is 16.7 µM in the assay with HCT-15; 2.81 µM (inactive) in the assay on RPMI-8226; 10.4 µM (inactive) with PC-3; 13.9 µM (inactive) with CAKI-1; 11.9 µM (inactive) with NCI-H23; 13.2 µM (inactive) in the assay with KM12. Besides, the GI50 is 2.88 µM (inactive) with NCI-H226; 11.9 µM (inactive) in the assay with MDA-N; 17 µM (inactive) in the assay on HCT-116; 15.5 µM (inactive) with NCI-H460; 12.9 µM (inactive) in the assay on MCF7; 15.2 µM (inactive) in the assay on UACC-257. Moreover, in the assay with ACHN, the GI50 was 15.6 µM (inactive).
As to `C=CC[C@H]1O[Si](C(C)(C)C)(C(C)(C)C)[C@H](C)[C@H]1C`, the GI50 was 24.3 µM (inactive) with HOP-92; > 100 µM (inactive) in the assay with UO-31; > 100 µM (inactive) in the assay with COLO 205; > 100 µM (inactive) with A498; > 100 µM (inactive) in the assay on SK-MEL-5; more than 100 µM with HCT-15. Moreover, the GI50 in the assay on RPMI-8226 was > 10 µM (inactive); in the assay with PC-3 it was > 100 µM (inactive); in the assay on CAKI-1 it was > 100 µM (inactive); in the assay with NCI-H23, > 100 µM (inactive); with KM12 it was > 100 µM (inactive); in the assay on NCI-H226, > 100 µM (inactive). The GI50 in the assay with MDA-N was > 100 µM (inactive); in the assay on HCT-116, > 100 µM (inactive); with MCF7, > 100 µM (inactive); with UACC-257, > 100 µM (inactive); in the assay on ACHN, 39.4 µM (inactive).
Regarding `O=S(=O)(SC1=NCCN1)c1cccc2ccccc12`, the GI50 is 36.8 µM (inactive) in the assay on HOP-92; 35.9 µM (inactive) in the assay with UO-31; 17.8 µM (inactive) in the assay with COLO 205; 26.1 µM (inactive) with A498; 19.1 µM (inactive) in the assay on SK-MEL-5; 35.3 µM with HCT-15. For the same molecule, the GI50 in the assay on RPMI-8226 is 19.1 µM (inactive); with PC-3 it was 29.8 µM (inactive); in the assay on CAKI-1, 24.9 µM (inactive); in the assay with NCI-H23, 28.4 µM (inactive); in the assay on KM12, 17.9 µM (inactive); in the assay on NCI-H226, 21.6 µM (inactive). Further, the GI50 in the assay on MDA-N is 18.7 µM (inactive); in the assay on HCT-116, 30.3 µM (inactive); with NCI-H460 it was 22.7 µM (inactive); with MCF7, 30.9 µM (inactive); with UACC-257, 28.5 µM (inactive); in the assay with ACHN, 27 µM (inactive).
